Laboratory results published in patent publication US11613525B2 (CTXT PTY LIMITED, priority 2018, dated 2023).
Where two headings read alike, the source gives them in different places.

Assays:
huSTING (WT) [1] = biological target: T1, huSTING (WT) (Homo sapiens (Human), UniProt Q86WV6, H232R); experiment: THP-1 reporter cell line assay, THP-1-Dual KI-hSTING-R232 cells; type: cell-based
Target sequence in this assay (Q86WV6 whole entry H232R): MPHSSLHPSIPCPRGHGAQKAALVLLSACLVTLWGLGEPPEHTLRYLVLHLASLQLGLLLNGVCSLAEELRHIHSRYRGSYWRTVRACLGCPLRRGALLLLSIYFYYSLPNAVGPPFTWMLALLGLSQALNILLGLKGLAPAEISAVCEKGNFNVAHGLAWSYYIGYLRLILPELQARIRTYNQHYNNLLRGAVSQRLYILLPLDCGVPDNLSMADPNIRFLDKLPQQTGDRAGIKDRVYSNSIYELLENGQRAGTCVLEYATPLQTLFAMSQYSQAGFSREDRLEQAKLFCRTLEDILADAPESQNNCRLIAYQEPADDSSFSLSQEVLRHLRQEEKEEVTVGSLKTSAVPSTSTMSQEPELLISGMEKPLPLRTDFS

huSTING (HAQ) = huSTING (HAQ) (Homo sapiens (Human), UniProt Q86WV6, G230A/H232R/R293Q/R71H); experiment: THP-1 reporter cell line assay, THP-1 STING Lucia ISG cells; type: cell-based
Chain of huSTING (HAQ) (Q86WV6 whole entry R71H/G230A/H232R/R293Q): as the sequence (Q86WV6 whole entry H232R) above, with R71H, G230A, R293Q counted along it

human STING (HAQ) [2] = biological target: T2, human STING (HAQ) (Homo sapiens, UniProt Q86WV6, G230A/H232R/R293Q); experiment: biochemical; type: binding; settings: for ΔTm at 100 µM: read-out: DSF huSTING (HAQ) ΔTm (° C.)
T2 sequence (Q86WV6 whole entry G230A/H232R/R293Q, looked up): as the sequence (Q86WV6 whole entry H232R) above, with G230A, R293Q counted along it
Method: (§1) DSF monitors thermal unfolding of protein in the presence of a fluorescent dye and is typically performed using a real-time PCR instrument. The temperature at which a protein unfolds is measured by an increase in the fluorescence of a dye with affinity for hydrophobic parts of the protein that are gradually exposed during unfolding. The fluorescence of the dye is quenched in aqueous environments, but when the dye associates with hydrophobic sites on the unfolded protein, its fluorescence increases. The fluorescence intensity is plotted as a function of the temperature, generating a sigmoidal curve that can be described by a two-state transition. The inflection point of the transition curve (Tm) is calculated using simple equations such as that of Boltzman.
(§2) Sealed plates were then placed into a Bio-Rad CFX96/C1000 thermocycler and FRET scanning mode (λ^excitation of 490 nm and reads at λ^emission of 570 nm) was used to measure fluorescence intensity. […] The melting point (Tm) obtained for STING protein alone was subtracted from Tm obtained for protein incubated with ligand to generate ΔTm values listed in the table below.
(§3) These additional compounds were tested as described above, however the protein concentration was 2 μM.

human STING (HAQ) [3] = biological target: T2, human STING (HAQ); settings: read-out: SPR (HAQ) KD; 25° C.
huSTING (WT) [4] = biological target: T1, huSTING (WT); experiment: Differential scanning fluorimetry (DSF), huSTING (WT); type: binding; settings: for ΔTm at 100 µM: 1 μM protein, compound at 100 μM, read-out: DSF huSTING (WT) ΔTm (° C.)
Method: as §1, §2, §3
Target sequence in this assay (Q86WV6 other isoform, or with tags, fused parts or gaps, stated change not applied): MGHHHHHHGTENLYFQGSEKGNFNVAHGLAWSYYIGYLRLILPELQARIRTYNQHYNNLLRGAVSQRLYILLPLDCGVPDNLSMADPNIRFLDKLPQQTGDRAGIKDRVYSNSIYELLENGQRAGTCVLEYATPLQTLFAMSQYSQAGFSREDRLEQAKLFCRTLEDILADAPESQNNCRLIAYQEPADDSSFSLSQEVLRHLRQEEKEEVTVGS

[5] = read-out: Cellular EC50 huSTING (WT)
[6] = THP-1 STING Lucia ISG cells, 24 h, top concentration 50 μM, read-out: Cellular EC50 huSTING (HAQ)

Compound | EC50 (huSTING (WT) [1]; [5]) [µM] | EC50 (huSTING (HAQ); [6]) [µM] | ΔTm at 100 µM (human STING (HAQ) [2]) [°C] | Kd (human STING (HAQ) [3]) [µM] | ΔTm at 100 µM (huSTING (WT) [4]) [°C] | DSF huSTING (HAQ) ΔTm (° C.) (human STING (HAQ) [2]; 1 μM protein, compound at 100 μM) [°C] | EC50 (huSTING (WT) [1]) [µM] | EC50 (huSTING (HAQ)) [µM] | DSF huSTING (HAQ) ΔTm (° C.) (human STING (HAQ) [2]) [°C] | DSF huSTING (WT) ΔTm (° C.) (huSTING (WT) [4]) [°C]
CCOC(=O)c1sc2cccc(F)c2c1COc1ccc(C(N)=O)cc1F [Example 58, Ethyl 3-((4-carbamoyl-2-fluorophenoxy)methyl)-4-fluorobenzo[b]thiophene-2-carboxylate] | 27.7 | 9.19 | 0.43 | > 10000 | – | – | – | – | – | –
CCOC(=O)c1sc2cc(Cl)ccc2c1COc1ccc(C(N)=O)cc1 [Example 9, Ethyl 3-((4-carbamoylphenoxy)methyl)-6-chlorobenzo[b]thiophene-2-carboxylate] | > 50 | > 50 | 0.71 | – | 0.51 | – | – | – | – | –
NC(=O)c1ccc(OCc2c(C(=O)OCc3ccccc3)sc3cccc(F)c23)cc1 [Example 3, Benzyl 3-((4-carbamoylphenoxy)methyl)-4-fluorobenzo[b]thiophene-2-carboxylate] | > 50 | 2.94 | – | 3500 | – | −0.47 | – | – | – | –
Cc1cccc2sc(C(=O)O)c(COc3ccc(C(N)=O)cc3)c12 [Example 78, 3-((4-Carbamoylphenoxy)methyl)-4-methylbenzo[b]thiophene-2-carboxylic acid] | > 50 | > 50 | 16 | – | 6.62 | – | – | – | – | –
CCOC(=O)c1sc2ccccc2c1COc1ccc(C(N)=O)cc1 [Example 5, Ethyl 3-((4-carbamoylphenoxy)methyl)benzo[b]thiophene-2-carboxylate] | > 50 | 8.22 | -0.48 | – | 0.07 | – | – | – | – | –
NC(=O)c1ccc(NCc2c(C(=O)O)sc3cccc(Cl)c23)cc1 [Example 76, 3-(((4-Carbamoylphenyl)amino)methyl)-4-chlorobenzo[b]thiophene-2-carboxylic acid] | 0.217 | 2.68 | 2.43 | – | -2.72 | – | – | – | – | –
NC(=O)c1cc(F)c(OCc2c(C(=O)O)sc3c(F)ccc(F)c23)c(F)c1 [Example 80, 3-((4-Carbamoyl-2,6-difluorophenoxy)methyl)-4,7-difluorobenzo[b]thiophene-2-carboxylic acid] | > 50 | 38.6 | 14.9 | – | 6.69 | – | – | – | – | –
NC(=O)c1ccc(OCc2c(C(=O)O)sc3c(F)ccc(F)c23)cc1 [Example 82, 3-((4-Carbamoylphenoxy)methyl)-4,7-difluorobenzo[b]thiophene-2-carboxylic acid] | > 50 | > 50 | 9.29 | – | 3.15 | – | – | – | – | –
COCCOC(=O)c1sc2cccc(Cl)c2c1COc1c(F)cc(C(N)=O)cc1F [Example 158, 2-Methoxyethyl 3-((4-carbamoyl-2,6-difluorophenoxy)methyl)-4-chlorobenzo[b]thiophene-2-carboxylate] | – | – | – | – | – | – | 0.949 | 0.132 | −1.58 | −1.90
CCOC(=O)c1sc2c(Cl)cccc2c1COc1ccc(C(N)=O)cc1 [Example 11, Ethyl 3-((4-carbamoylphenoxy)methyl)-7-chlorobenzo[b]thiophene-2-carboxylate] | 25.6 | 16.2 | 0.29 | – | 0.13 | – | – | – | – | –
CCOP(=O)(COC(=O)c1sc2cccc(Cl)c2c1COc1c(F)cc(C(N)=O)cc1F)OCC [Example 143, (Diethoxyphosphoryl)methyl 3-((4-carbamoyl-2,6-difluorophenoxy)methyl)-4-chlorobenzo[b]thiophene-2-carboxylate] | – | – | – | – | – | – | 0.381 | 0.018 | −2.10 | −1.93
NC(=O)c1cc(F)c(OCc2c(C(=O)O)sc3ccc(F)c(Cl)c23)c(F)c1 [Example 86, 3-((4-Carbamoyl-2,6-difluorophenoxy)methyl)-4-chloro-5-fluorobenzo[b]thiophene-2-carboxylic acid] | > 50 | > 50 | 10.1 | – | 3.33 | – | – | – | – | –
